Experimental data as given in the supplement of paper PMC10307832.

Columns and labels:
Test in all cases: relative viability (nuclei count vs DMSO), 5 days (fraction); higher = more cells survive
Nelarabine + Foretinib = compound: COc1nc(N)nc2c1ncn2[C@@H]1O[C@H](CO)[C@@H](O)[C@@H]1O [Nelarabine] + COc1cc2c(Oc3ccc(NC(=O)C4(C(=O)Nc5ccc(F)cc5)CC4)cc3F)ccnc2cc1OCCCN1CCOCC1 [Foretinib] (partner 0.25 µM)
Procedure, shortened: (§1)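 Lung cancer cell lines were seeded in 1536-well plates and dosed by pin tool the next day, with either a single drug or a fixed anchor-drug dose combined with five library-drug doses (not always all listed) spaced in √10 steps. Five days later, one step fixed the cells and stained their nuclei (final 0.05% Triton X-100, 1% formaldehyde, 1 ug/ml Hoechst), and nuclei were counted on 4× images. Relative viability is the nuclei count in treated wells divided by the count in vehicle wells, and each value is the median of duplicate plates.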

Adavosertib + Dasatinib = compound: C=CCn1c(=O)c2cnc(Nc3ccc(N4CCN(C)CC4)cc3)nc2n1-c1cccc(C(C)(C)O)n1 [Adavosertib] + Cc1nc(Nc2ncc(C(=O)Nc3c(C)cccc3Cl)s2)cc(N2CCN(CCO)CC2)n1 [Dasatinib] (partner 0.075 µM)
Procedure, shortened: as §1

Nelarabine + Trametinib = compound: COc1nc(N)nc2c1ncn2[C@@H]1O[C@H](CO)[C@@H](O)[C@@H]1O [Nelarabine] + CC(=O)Nc1cccc(-n2c(=O)n(C3CC3)c(=O)c3c(Nc4ccc(I)cc4F)n(C)c(=O)c(C)c32)c1 [Trametinib] (partner 0.02 µM)
Procedure, shortened: as §1

Nelarabine + Pictilisib = compound: COc1nc(N)nc2c1ncn2[C@@H]1O[C@H](CO)[C@@H](O)[C@@H]1O [Nelarabine] + CS(=O)(=O)N1CCN(Cc2cc3nc(-c4cccc5[nH]ncc45)nc(N4CCOCC4)c3s2)CC1 [Pictilisib] (partner 1 µM)
Procedure, shortened: as §1

SK-LU-1
relative viability (Nelarabine + Foretinib; first compound 0.01 µM): 1.03
relative viability (Nelarabine + Foretinib; first compound 0.03162 µM): 0.584
relative viability (Nelarabine + Foretinib; first compound 0.1 µM): 0.951
relative viability (Nelarabine + Foretinib; first compound 0.3162 µM): 0.896
relative viability (Nelarabine + Foretinib; first compound 1 µM): 1.03
relative viability (Adavosertib + Dasatinib; first compound 0.01 µM): 0.249
relative viability (Adavosertib + Dasatinib; first compound 0.03162 µM): 0.158
relative viability (Adavosertib + Dasatinib; first compound 0.1 µM): 0.148
relative viability (Adavosertib + Dasatinib; first compound 0.3162 µM): 0.136
relative viability (Nelarabine + Trametinib; first compound 0.01 µM): 0.523
relative viability (Nelarabine + Trametinib; first compound 0.03162 µM): 0.42
relative viability (Nelarabine + Trametinib; first compound 0.1 µM): 0.421
relative viability (Nelarabine + Trametinib; first compound 0.3162 µM): 0.558
relative viability (Nelarabine + Trametinib; first compound 1 µM): 0.514
relative viability (Nelarabine + Pictilisib; first compound 0.01 µM): 0.684
relative viability (Nelarabine + Pictilisib; first compound 0.03162 µM): 0.396
relative viability (Nelarabine + Pictilisib; first compound 0.1 µM): 0.546
relative viability (Nelarabine + Pictilisib; first compound 0.3162 µM): 0.606
relative viability (Nelarabine + Pictilisib; first compound 1 µM): 0.613

BEN
relative viability (Nelarabine + Foretinib; first compound 0.01 µM): 0.583
relative viability (Nelarabine + Foretinib; first compound 0.03162 µM): 0.744
relative viability (Nelarabine + Foretinib; first compound 0.1 µM): 0.655
relative viability (Nelarabine + Foretinib; first compound 0.3162 µM): 0.638
relative viability (Nelarabine + Foretinib; first compound 1 µM): 0.556
relative viability (Adavosertib + Dasatinib; first compound 0.01 µM): 0.294
relative viability (Adavosertib + Dasatinib; first compound 0.03162 µM): 0.295
relative viability (Adavosertib + Dasatinib; first compound 0.1 µM): 0.297
relative viability (Adavosertib + Dasatinib; first compound 0.3162 µM): 0.302
relative viability (Nelarabine + Trametinib; first compound 0.01 µM): 1.17
relative viability (Nelarabine + Trametinib; first compound 0.03162 µM): 0.91
relative viability (Nelarabine + Trametinib; first compound 0.1 µM): 1.01
relative viability (Nelarabine + Trametinib; first compound 0.3162 µM): 1.05
relative viability (Nelarabine + Trametinib; first compound 1 µM): 1.31
relative viability (Nelarabine + Pictilisib; first compound 0.01 µM): 0.67
relative viability (Nelarabine + Pictilisib; first compound 0.03162 µM): 0.596
relative viability (Nelarabine + Pictilisib; first compound 0.1 µM): 0.605
relative viability (Nelarabine + Pictilisib; first compound 0.3162 µM): 0.607
relative viability (Nelarabine + Pictilisib; first compound 1 µM): 0.641

NCI-H1915
relative viability (Nelarabine + Foretinib; first compound 0.01 µM): 1.13
relative viability (Nelarabine + Foretinib; first compound 0.03162 µM): 1.03
relative viability (Nelarabine + Foretinib; first compound 0.1 µM): 1.16
relative viability (Nelarabine + Foretinib; first compound 0.3162 µM): 1.1
relative viability (Nelarabine + Foretinib; first compound 1 µM): 1.12
relative viability (Adavosertib + Dasatinib; first compound 0.01 µM): 0.325
relative viability (Adavosertib + Dasatinib; first compound 0.03162 µM): 0.315
relative viability (Adavosertib + Dasatinib; first compound 0.1 µM): 0.352
relative viability (Adavosertib + Dasatinib; first compound 0.3162 µM): 0.293
relative viability (Nelarabine + Trametinib; first compound 0.01 µM): 0.328
relative viability (Nelarabine + Trametinib; first compound 0.03162 µM): 0.318
relative viability (Nelarabine + Trametinib; first compound 0.1 µM): 0.284
relative viability (Nelarabine + Trametinib; first compound 0.3162 µM): 0.299
relative viability (Nelarabine + Trametinib; first compound 1 µM): 0.305
relative viability (Nelarabine + Pictilisib; first compound 0.01 µM): 1.08
relative viability (Nelarabine + Pictilisib; first compound 0.03162 µM): 0.939
relative viability (Nelarabine + Pictilisib; first compound 0.1 µM): 1.04
relative viability (Nelarabine + Pictilisib; first compound 0.3162 µM): 0.959
relative viability (Nelarabine + Pictilisib; first compound 1 µM): 1.01

COR-L23
relative viability (Nelarabine + Foretinib; first compound 0.01 µM): 1.23
relative viability (Nelarabine + Foretinib; first compound 0.03162 µM): 1.02
relative viability (Nelarabine + Foretinib; first compound 0.1 µM): 0.917
relative viability (Nelarabine + Foretinib; first compound 0.3162 µM): 0.992
relative viability (Nelarabine + Foretinib; first compound 1 µM): 0.964
relative viability (Adavosertib + Dasatinib; first compound 0.01 µM): 0.63
relative viability (Adavosertib + Dasatinib; first compound 0.03162 µM): 0.459
relative viability (Adavosertib + Dasatinib; first compound 0.1 µM): 0.517
relative viability (Adavosertib + Dasatinib; first compound 0.3162 µM): 0.239
relative viability (Nelarabine + Trametinib; first compound 0.01 µM): 0.779
relative viability (Nelarabine + Trametinib; first compound 0.03162 µM): 0.558
relative viability (Nelarabine + Trametinib; first compound 0.1 µM): 0.516
relative viability (Nelarabine + Trametinib; first compound 0.3162 µM): 0.612
relative viability (Nelarabine + Trametinib; first compound 1 µM): 0.777
relative viability (Nelarabine + Pictilisib; first compound 0.01 µM): 1.13
relative viability (Nelarabine + Pictilisib; first compound 0.03162 µM): 0.635
relative viability (Nelarabine + Pictilisib; first compound 0.1 µM): 0.738
relative viability (Nelarabine + Pictilisib; first compound 0.3162 µM): 0.934
relative viability (Nelarabine + Pictilisib; first compound 1 µM): 0.864

NCI-H1975
relative viability (Nelarabine + Foretinib; first compound 0.01 µM): 1.01
relative viability (Nelarabine + Foretinib; first compound 0.03162 µM): 0.892
relative viability (Nelarabine + Foretinib; first compound 0.1 µM): 1.14
relative viability (Nelarabine + Foretinib; first compound 0.3162 µM): 0.986
relative viability (Nelarabine + Foretinib; first compound 1 µM): 1.07
relative viability (Adavosertib + Dasatinib; first compound 0.01 µM): 0.383
relative viability (Adavosertib + Dasatinib; first compound 0.03162 µM): 0.3
relative viability (Adavosertib + Dasatinib; first compound 0.1 µM): 0.268
relative viability (Adavosertib + Dasatinib; first compound 0.3162 µM): 0.232
relative viability (Nelarabine + Trametinib; first compound 0.01 µM): 0.355
relative viability (Nelarabine + Trametinib; first compound 0.03162 µM): 0.35
relative viability (Nelarabine + Trametinib; first compound 0.1 µM): 0.36
relative viability (Nelarabine + Trametinib; first compound 0.3162 µM): 0.396
relative viability (Nelarabine + Trametinib; first compound 1 µM): 0.381
relative viability (Nelarabine + Pictilisib; first compound 0.01 µM): 0.325
relative viability (Nelarabine + Pictilisib; first compound 0.03162 µM): 0.295
relative viability (Nelarabine + Pictilisib; first compound 0.1 µM): 0.369
relative viability (Nelarabine + Pictilisib; first compound 0.3162 µM): 0.335
relative viability (Nelarabine + Pictilisib; first compound 1 µM): 0.331

RERF-LC-KJ
relative viability (Nelarabine + Foretinib; first compound 0.01 µM): 1.1
relative viability (Nelarabine + Foretinib; first compound 0.03162 µM): 1.07
relative viability (Nelarabine + Foretinib; first compound 0.1 µM): 0.923
relative viability (Nelarabine + Foretinib; first compound 0.3162 µM): 0.858
relative viability (Nelarabine + Foretinib; first compound 1 µM): 0.938
relative viability (Adavosertib + Dasatinib; first compound 0.01 µM): 0.799
relative viability (Adavosertib + Dasatinib; first compound 0.03162 µM): 0.774
relative viability (Adavosertib + Dasatinib; first compound 0.1 µM): 0.975
relative viability (Adavosertib + Dasatinib; first compound 0.3162 µM): 0.715
relative viability (Nelarabine + Trametinib; first compound 0.01 µM): 1.03
relative viability (Nelarabine + Trametinib; first compound 0.03162 µM): 1
relative viability (Nelarabine + Trametinib; first compound 0.1 µM): 0.934
relative viability (Nelarabine + Trametinib; first compound 0.3162 µM): 0.986
relative viability (Nelarabine + Trametinib; first compound 1 µM): 0.862
relative viability (Nelarabine + Pictilisib; first compound 0.01 µM): 0.582
relative viability (Nelarabine + Pictilisib; first compound 0.03162 µM): 0.652
relative viability (Nelarabine + Pictilisib; first compound 0.1 µM): 0.559
relative viability (Nelarabine + Pictilisib; first compound 0.3162 µM): 0.578
relative viability (Nelarabine + Pictilisib; first compound 1 µM): 0.422

NCI-H2228
relative viability (Nelarabine + Foretinib; first compound 0.01 µM): 0.977
relative viability (Nelarabine + Foretinib; first compound 0.03162 µM): 1.02
relative viability (Nelarabine + Foretinib; first compound 0.3162 µM): 0.956
relative viability (Nelarabine + Foretinib; first compound 1 µM): 0.86
relative viability (Adavosertib + Dasatinib; first compound 0.01 µM): 0.536
relative viability (Adavosertib + Dasatinib; first compound 0.03162 µM): 0.492
relative viability (Adavosertib + Dasatinib; first compound 0.1 µM): 0.475
relative viability (Adavosertib + Dasatinib; first compound 0.3162 µM): 0.265
relative viability (Nelarabine + Trametinib; first compound 0.01 µM): 0.575
relative viability (Nelarabine + Trametinib; first compound 0.03162 µM): 0.469
relative viability (Nelarabine + Trametinib; first compound 0.1 µM): 0.29
relative viability (Nelarabine + Trametinib; first compound 0.3162 µM): 0.55
relative viability (Nelarabine + Trametinib; first compound 1 µM): 0.668
relative viability (Nelarabine + Pictilisib; first compound 0.01 µM): 0.275
relative viability (Nelarabine + Pictilisib; first compound 0.03162 µM): 0.235
relative viability (Nelarabine + Pictilisib; first compound 0.3162 µM): 0.452
relative viability (Nelarabine + Pictilisib; first compound 1 µM): 0.268

HCC-15
relative viability (Nelarabine + Foretinib; first compound 0.01 µM): 1.16
relative viability (Nelarabine + Foretinib; first compound 0.03162 µM): 0.996
relative viability (Nelarabine + Foretinib; first compound 0.1 µM): 0.983
relative viability (Nelarabine + Foretinib; first compound 0.3162 µM): 1.12
relative viability (Nelarabine + Foretinib; first compound 1 µM): 0.992
relative viability (Adavosertib + Dasatinib; first compound 0.01 µM): 0.577
relative viability (Adavosertib + Dasatinib; first compound 0.03162 µM): 0.569
relative viability (Adavosertib + Dasatinib; first compound 0.1 µM): 0.574
relative viability (Adavosertib + Dasatinib; first compound 0.3162 µM): 0.643
relative viability (Nelarabine + Trametinib; first compound 0.01 µM): 0.431
relative viability (Nelarabine + Trametinib; first compound 0.03162 µM): 0.427
relative viability (Nelarabine + Trametinib; first compound 0.1 µM): 0.307
relative viability (Nelarabine + Trametinib; first compound 0.3162 µM): 0.42
relative viability (Nelarabine + Trametinib; first compound 1 µM): 0.386
relative viability (Nelarabine + Pictilisib; first compound 0.01 µM): 0.893
relative viability (Nelarabine + Pictilisib; first compound 0.03162 µM): 0.669
relative viability (Nelarabine + Pictilisib; first compound 0.1 µM): 0.76
relative viability (Nelarabine + Pictilisib; first compound 0.3162 µM): 0.871
relative viability (Nelarabine + Pictilisib; first compound 1 µM): 0.832
